Assay [1] relates to phospho-FMS in THP-1 cells. The experiment in a line: cells. The note with it: Homo sapiens, THP-1, read-out: pFMS inhibition in THP-1 cells.
In assay [2] the target is T1, unphosphorylated c-FMS kinase (uFMS, Seq. ID no. 1) (Homo sapiens, UniProt P07333).
T1 sequence (P07333 538-972): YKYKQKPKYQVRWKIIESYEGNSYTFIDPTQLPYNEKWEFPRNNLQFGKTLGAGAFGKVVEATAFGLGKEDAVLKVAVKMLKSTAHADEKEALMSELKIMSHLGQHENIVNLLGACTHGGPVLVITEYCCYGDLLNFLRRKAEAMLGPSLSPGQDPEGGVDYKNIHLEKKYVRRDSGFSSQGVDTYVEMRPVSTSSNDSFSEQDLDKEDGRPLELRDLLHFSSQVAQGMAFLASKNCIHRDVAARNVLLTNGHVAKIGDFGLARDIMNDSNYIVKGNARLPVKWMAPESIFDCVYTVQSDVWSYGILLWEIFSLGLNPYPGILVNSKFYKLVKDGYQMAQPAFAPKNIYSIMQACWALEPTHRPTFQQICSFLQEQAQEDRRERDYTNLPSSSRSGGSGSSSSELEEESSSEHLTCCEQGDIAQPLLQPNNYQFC
The experiment in a line: biochemical.
Method: In this assay, the oxidation of NADH (thus the decrease at A340 nm) was continuously monitored spectrophometrically. The reaction mixture (100 μL) contained FMS (purchased from Millipore) (10 nM), polyE4Y (1 mg/mL), MgCl2 (10 mM), pyruvate kinase (4 units), lactate dehydrogenase (0.7 units), phosphoenol pyruvate (1 mM), NADH (0.28 mM) and ATP (500 μM) in 90 mM Tris buffer containing 0.2% octyl-glucoside and 1% DMSO, pH 7.5. The inhibition reaction was started by mixing serial diluted test compound with the above reaction mixture. The absorption at 340 nm was monitored continuously for 4 hours at 30° C. on Synergy 2 plate reader. The reaction rate was calculated using the 3 to 4 h time frame. Percent inhibition was obtained by comparison of reaction rate with that of a control (i.e. in the absence of test compound). IC50 values were calculated from a series of percent inhibition values determined at a range of inhibitor concentrations using software routines as implemented in the GraphPad Prism software package.

A further assay relates to osteoclast precursors. The experiment in a line: cells. The format is cell-based. The conditions noted are these: read-out: Osteoclast assay.
Another assay has as its system M-NFS-60 cells. The experiment in a line: cells. The note with it: 67 h, read-out: M-NFS-60 cell proliferation.
In assay [3] the target is unphosphorylated c-KIT kinase (uKIT, Seq. ID no. 2) (Homo sapiens, UniProt P10721). The experiment in a line: biochemical.
Method: uKit kinase (Seq. ID No. 2) Assay
In this assay, the oxidation of NADH (thus the decrease at A340 nm) was continuously monitored spectrophometrically. […] The inhibition reaction was started by mixing serial diluted test compound with the above reaction mixture. The absorption at 340 nm was monitored continuously for 4 hours at 30° C. on Synergy 2 plate reader (BioTech).
In assay [4] the target is unphosphorylated PDGFRβ kinase (uPDGFRβ, Seq. ID No. 3) (Homo sapiens, UniProt P09619). Briefly: biochemical.
The mark [5] stands for this setting: uFMS, enzymatic assay, ATP 500 μM.
The mark [6] stands for this setting: uKIT, enzymatic assay, ATP 2000 μM.
Where [7] appears, read: uPDGFRb, enzymatic assay, ATP 500 μM.

Molecules are shown by their SMILES.

unphosphorylated PDGFRβ kinase (uPDGFRβ, Seq. ID No. 3), sequence (P09619 557-1106): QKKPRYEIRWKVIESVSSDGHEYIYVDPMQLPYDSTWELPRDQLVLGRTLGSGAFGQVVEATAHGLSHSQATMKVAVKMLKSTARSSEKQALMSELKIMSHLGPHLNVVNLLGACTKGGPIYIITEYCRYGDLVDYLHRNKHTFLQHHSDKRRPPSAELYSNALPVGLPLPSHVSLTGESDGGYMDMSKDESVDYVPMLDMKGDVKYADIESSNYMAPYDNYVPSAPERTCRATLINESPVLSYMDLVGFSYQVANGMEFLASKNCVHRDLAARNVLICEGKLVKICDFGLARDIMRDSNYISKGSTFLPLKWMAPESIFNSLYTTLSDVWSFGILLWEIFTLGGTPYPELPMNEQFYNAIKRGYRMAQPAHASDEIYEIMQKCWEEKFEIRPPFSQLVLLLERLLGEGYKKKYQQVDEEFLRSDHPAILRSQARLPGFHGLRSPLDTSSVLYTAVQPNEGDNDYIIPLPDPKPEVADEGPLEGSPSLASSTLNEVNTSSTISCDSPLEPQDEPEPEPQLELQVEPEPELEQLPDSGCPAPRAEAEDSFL
unphosphorylated c-KIT kinase (uKIT, Seq. ID no. 2), sequence (P10721 with tags, fused parts or gaps): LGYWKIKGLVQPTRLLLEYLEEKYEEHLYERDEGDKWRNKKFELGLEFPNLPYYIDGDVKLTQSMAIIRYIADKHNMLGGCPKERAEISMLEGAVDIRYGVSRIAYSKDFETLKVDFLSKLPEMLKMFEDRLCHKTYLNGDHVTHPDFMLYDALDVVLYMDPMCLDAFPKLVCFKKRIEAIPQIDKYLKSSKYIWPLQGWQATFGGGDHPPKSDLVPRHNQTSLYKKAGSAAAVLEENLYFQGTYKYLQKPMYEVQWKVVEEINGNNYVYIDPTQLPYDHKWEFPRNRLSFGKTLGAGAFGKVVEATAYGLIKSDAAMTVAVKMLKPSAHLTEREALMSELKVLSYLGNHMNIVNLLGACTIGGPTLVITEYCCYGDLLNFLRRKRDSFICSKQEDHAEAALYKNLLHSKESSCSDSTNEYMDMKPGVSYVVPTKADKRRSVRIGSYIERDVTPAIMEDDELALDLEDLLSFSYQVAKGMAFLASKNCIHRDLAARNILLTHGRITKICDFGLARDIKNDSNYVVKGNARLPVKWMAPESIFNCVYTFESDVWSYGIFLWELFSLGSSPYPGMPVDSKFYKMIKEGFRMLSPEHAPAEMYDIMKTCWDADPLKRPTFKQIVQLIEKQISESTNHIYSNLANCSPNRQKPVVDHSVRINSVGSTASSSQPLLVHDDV
Method for M-NFS-60 cells: M-NFS-6 Cell Proliferation Assay
A serial dilution of test compound was dispensed into a 384-well black clear bottom plate (Corning, Corning, N.Y.). Two thousand five hundred cells were added per well in 50 μL complete growth medium. […] IC50 values were calculated from a series of percent inhibition values determined at a range of inhibitor concentrations using software routines as implemented in the GraphPad Prism software package.

For `Cc1nc(NC(=O)NC(=O)C2CC(C)(C)C2)ccc1Oc1ccnc(-c2cnn(C)c2)c1` [Example 13, 3,3-dimethyl-N-((6-methyl-5-((2-(1-methyl-1H-pyrazol-4-yl)pyridin-4-yl)oxy)pyridin-2-yl)carbamoyl)cyclobutanecarboxamide], the IC50 in assay [1] is below 10 nM; in assay [2] (setting [5]), below 10 nM; in the assay with osteoclast precursors, below 10 nM; with M-NFS-60 cells, below 10 nM; in assay [3] (setting [6]), below 10 nM; in assay [4] (setting [7]), 10 to 100 nM.
`Cn1cc(-c2cc(Oc3ccc(NC(=O)NC(=O)C(C)(C)C)nc3)ccn2)cn1` [Example 26, N-((5-((2-(1-methyl-1H-pyrazol-4-yl)pyridin-4-yl)oxy)pyridin-2-yl)carbamoyl)pivalamide]: the IC50 in assay [1] is 10 to 100 nM; in assay [2] (setting [5]) it was below 10 nM; with osteoclast precursors, below 10 nM; in the assay with M-NFS-60 cells, below 10 nM; in assay [3] (setting [6]) it was 100 to 1000 nM; in assay [4] (setting [7]), 100 to 1000 nM.
For the compound `Cn1cc(-c2cc(Oc3ccc(NC(=O)NC(=O)C4CC5(CCC5)C4)nc3)ccn2)cn1` [Example 31, N-((5-((2-(1-methyl-1H-pyrazol-4-yl)pyridin-4-yl)oxy)pyridin-2-yl)carbamoyl)spiro[3.3]heptane-2-carboxamide], the IC50 is 10 to 100 nM in assay [1]; below 10 nM in assay [2] (setting [5]); below 10 nM in the assay with osteoclast precursors; below 10 nM with M-NFS-60 cells; below 10 nM in assay [3] (setting [6]); below 10 nM in assay [4] (setting [7]).
With `Cc1nc(NC(=O)NC(=O)C2CC3(CCC3)C2)ccc1Oc1ccnc(-c2cnn(C)c2)c1` [Example 32, N-((6-methyl-5-((2-(1-methyl-1H-pyrazol-4-yl)pyridin-4-yl)oxy)pyridin-2-yl)carbamoyl)spiro[3.3]heptane-2-carboxamide], the IC50 in assay [1] was below 10 nM; in assay [2] (setting [5]) it was below 10 nM; in the assay on osteoclast precursors, below 10 nM; with M-NFS-60 cells, 10 to 100 nM; in assay [3] (setting [6]), below 10 nM; in assay [4] (setting [7]), 10 to 100 nM.
Consider `Cn1cc(-c2cc(Oc3ccc(NC(=O)NC(=O)C4(C(F)(F)F)CC4)nc3)ccn2)cn1` [Example 33, N-((5-((2-(1-methyl-1H-pyrazol-4-yl)pyridin-4-yl)oxy)pyridin-2-yl)carbamoyl)-1-(trifluoromethyl)cyclopropanecarboxamide], for which the IC50 in assay [1] is 10 to 100 nM; in assay [2] (setting [5]), below 10 nM; in the assay with osteoclast precursors it was below 10 nM; with M-NFS-60 cells, 10 to 100 nM; in assay [3] (setting [6]) it was 100 to 1000 nM; in assay [4] (setting [7]) it was 10 to 100 nM.
Turning to `Cc1nc(NC(=O)NC(=O)C2(C(F)(F)F)CC2)ccc1Oc1ccnc(-c2cnn(C)c2)c1` [Example 34, N-((6-methyl-5-((2-(1-methyl-1H-pyrazol-4-yl)pyridin-4-yl)oxy)pyridin-2-yl)carbamoyl)-1-(trifluoromethyl)cyclopropanecarboxamide], the IC50 is 10 to 100 nM in assay [1]; below 10 nM in assay [2] (setting [5]); below 10 nM with osteoclast precursors; 10 to 100 nM with M-NFS-60 cells; 100 to 1000 nM in assay [3] (setting [6]); 100 to 1000 nM in assay [4] (setting [7]).
As to `Cn1cc(-c2cc(Oc3ccc(NC(=O)NC(=O)C(C)(C)C(F)(F)F)nc3)ccn2)cn1` [Example 35, 3,3,3-trifluoro-2,2-dimethyl-N-((5-((2-(1-methyl-1H-pyrazol-4-yl)pyridin-4-yl)oxy)pyridin-2-yl)carbamoyl)propanamide], the IC50 in assay [1] was 10 to 100 nM; in assay [2] (setting [5]), below 10 nM; in the assay on osteoclast precursors, 10 to 100 nM; in the assay on M-NFS-60 cells it was 10 to 100 nM; in assay [3] (setting [6]), 100 to 1000 nM; in assay [4] (setting [7]), 10 to 100 nM.
As for `Cc1nc(NC(=O)NC(=O)C(C)(C)C(F)(F)F)ccc1Oc1ccnc(-c2cnn(C)c2)c1` [Example 36, 3,3,3-trifluoro-2,2-dimethyl-N-((6-methyl-5-((2-(1-methyl-1H-pyrazol-4-yl)pyridin-4-yl)oxy)pyridin-2-yl)carbamoyl)propanamide], the IC50 is 10 to 100 nM in assay [1]; below 10 nM in assay [2] (setting [5]); 10 to 100 nM with osteoclast precursors; 10 to 100 nM in the assay with M-NFS-60 cells; 100 to 1000 nM in assay [3] (setting [6]); 100 to 1000 nM in assay [4] (setting [7]).
`Cn1cc(-c2cc(Oc3ccc(NC(=O)NC(=O)C45CC6CC(CC(C6)C4)C5)nc3)ccn2)cn1` [Example 38, N-((5-((2-(1-methyl-1H-pyrazol-4-yl)pyridin-4-yl)oxy)pyridin-2-yl)carbamoyl)adamantane-1-carboxamide]: the IC50 in assay [1] is 10 to 100 nM; in assay [2] (setting [5]), below 10 nM; with osteoclast precursors it was 10 to 100 nM; in the assay with M-NFS-60 cells, 10 to 100 nM; in assay [3] (setting [6]), 10 to 100 nM; in assay [4] (setting [7]), below 10 nM.
With `CN1CCN(CC(=O)NC(=O)Nc2ccc(Oc3ccnc(-c4cnn(C)c4)c3)cn2)CC1` [Example 49, N-((5-((2-(1-methyl-1H-pyrazol-4-yl)pyridin-4-yl)oxy)pyridin-2-yl)carbamoyl)-2-(4-methylpiperazin-1-yl)acetamide], the IC50 in assay [1] is 100 to 1000 nM; in assay [2] (setting [5]) it was 10 to 100 nM; in the assay with osteoclast precursors, 100 to 1000 nM; in the assay with M-NFS-60 cells it was above 1000 nM; in assay [3] (setting [6]) it was above 1000 nM; in assay [4] (setting [7]), above 1000 nM.
As for `Cn1cc(-c2cc(Oc3ccc(NC(=O)NC(=O)C4CC4)nc3)ccn2)cn1` [Example 51, N-((5-((2-(1-methyl-1H-pyrazol-4-yl)pyridin-4-yl)oxy)pyridin-2-yl)carbamoyl)cyclopropanecarboxamide], the IC50 in assay [1] was below 10 nM; in assay [2] (setting [5]), below 10 nM; in the assay on osteoclast precursors, below 10 nM; with M-NFS-60 cells, 10 to 100 nM; in assay [3] (setting [6]), 100 to 1000 nM; in assay [4] (setting [7]), above 1000 nM.
For the compound `CCn1cc(-c2cc(Oc3ccc(NC(=O)NC(=O)C(C)(C)C)nc3C)ccn2)cn1` [Example 60, N-((5-((2-(1-ethyl-1H-pyrazol-4-yl)pyridin-4-yl)oxy)-6-methylpyridin-2-yl)carbamoyl)pivalamide], the IC50 in assay [1] was below 10 nM; in assay [2] (setting [5]), below 10 nM; with osteoclast precursors, 10 to 100 nM; in the assay on M-NFS-60 cells, 10 to 100 nM; in assay [3] (setting [6]) it was above 1000 nM; in assay [4] (setting [7]), above 1000 nM.
Consider `CCn1cc(-c2cc(Oc3ccc(NC(=O)NC(=O)C(C)C)nc3C)ccn2)cn1` [Example 61, N-((5-((2-(1-ethyl-1H-pyrazol-4-yl)pyridin-4-yl)oxy)-6-methylpyridin-2-yl)carbamoyl)isobutyramide], for which the IC50 in assay [1] is below 10 nM; in assay [2] (setting [5]), below 10 nM; with osteoclast precursors it was below 10 nM; in the assay on M-NFS-60 cells, 10 to 100 nM; in assay [3] (setting [6]), above 1000 nM; in assay [4] (setting [7]), above 1000 nM.
For `Cn1cc(-c2cc(Oc3ccc(NC(=O)NC(=O)C4CCOC4)nc3)ccn2)cn1` (stereo not drawn) [Example 66, N-((5-((2-(1-methyl-1H-pyrazol-4-yl)pyridin-4-yl)oxy)pyridin-2-yl)carbamoyl)tetrahydrofuran-3-carboxamide], the IC50 was below 10 nM in assay [1]; below 10 nM in assay [2] (setting [5]); below 10 nM with osteoclast precursors; 10 to 100 nM in the assay with M-NFS-60 cells; 100 to 1000 nM in assay [3] (setting [6]); above 1000 nM in assay [4] (setting [7]).
For `CCC(C)(C)C(=O)NC(=O)Nc1ccc(Oc2ccnc(-c3cnn(C)c3)c2)c(C)n1` [Example 69, 2,2-dimethyl-N-((6-methyl-5-((2-(1-methyl-1H-pyrazol-4-yl)pyridin-4-yl)oxy)pyridin-2-yl)carbamoyl)butanamide], the IC50 in assay [1] was 10 to 100 nM; in assay [2] (setting [5]) it was below 10 nM; in the assay on osteoclast precursors, 10 to 100 nM; with M-NFS-60 cells, below 10 nM; in assay [3] (setting [6]), 100 to 1000 nM; in assay [4] (setting [7]), 100 to 1000 nM.
Regarding `Cc1ncc(-c2cc(Oc3ccc(NC(=O)NC(=O)C(C)(C)C)nc3)ccn2)s1` [Example 70, N-((5-((2-(2-methylthiazol-5-yl)pyridin-4-yl)oxy)pyridin-2-yl)carbamoyl)pivalamide], the IC50 in assay [1] is 10 to 100 nM; in assay [2] (IC50 (nM) uFMS, Table 3), 4 nM; in assay [2] (setting [5]) it was below 10 nM; in the assay on osteoclast precursors it was below 10 nM; in the assay with M-NFS-60 cells, 10 to 100 nM; in assay [3] (IC50 (nM) uKIT, Table 3), 2600 nM. Also, the IC50 was above 1000 nM in assay [3] (setting [6]); 922 nM in assay [4] (IC50 (nM) uPDGFRβ, Table 3); 100 to 1000 nM in assay [4] (setting [7]).
Consider `Cc1ccc(-c2cc(Oc3ccc(NC(=O)NC(=O)C(C)C)nc3C)ccn2)cn1` [Example 71, N-((6-methyl-5-((6′-methyl-[2,3′-bipyridin]-4-yl)oxy)pyridin-2-yl)carbamoyl)isobutyramide], for which the IC50 in assay [1] is 10 to 100 nM; in assay [2] (setting [5]), below 10 nM; in the assay on osteoclast precursors it was below 10 nM; in the assay with M-NFS-60 cells it was 10 to 100 nM; in assay [3] (setting [6]), above 1000 nM; in assay [4] (setting [7]) it was above 1000 nM.

For the origin of these results see patent US9382228B2 (priority 2013, dated 2016).
